{"source": "patent US20080233242A1", "about": "“Antioxidant of Bamboo Leaves and Its Uses” (priority 2003, published 2008)", "tested_on": "lipid oxidation in Jinhua ham", "assay": "Antioxidation and sensory quality of Jinhua ham slices (AV, POV, chromatic aberration)", "conditions": "ham slice soaked 2 min in 0.03% solution, stored at 50±1° C. for 11 days, versus control group", "protocol": "AOB was dissolved in water to produce a 0.03% solution, TBHQ (previously dissolved in ethanol) in the same concentration as control. A slice of Jinhua ham with a thickness of 1 cm was soaked for 2 min, and the effects of AOB on antioxidation and sensory quality of the slice of Jinhua ham were compared."}
{"compound": "CC(C)(C)c1cc(O)ccc1O", "note": "[TBHQ, tert-butyl hydroquinone]", "values": [{"measurement": "lipid oxidation (AV and POV)", "value": "significantly inhibited"}]}
